Laboratory results published in US20090246292A1, “ANTIMICROBIAL FORMULATIONS COMPRISING A QUINONE AND A COPPER SALT” (priority 2006, published 2009).

Tests used:
[1] = test system: P. acnes NCTC 737; assay: Disc diffusion assay (DDA), also supplemented; conditions: for DDA + salt & lipid: Example 8, single compound, salt and 1% (v/v) triolein;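 on all read-outs here: paper disc carrying compound placed on inoculated Wilkins-Chalgren Anaerobe agar pH 6.0, with lipid or NaCl supplement where listed, anaerobic 37 °C for 72 h, inhibition zone diameter read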
Experimental: The propionibacteria were cultured and maintained on Wilkins-Chalgren Anaerobe Medium (agar and broth) at pH 6.0; all cultures were incubated anaerobically at 37° C. for 72 hours.
(d) Disc Diffusion Assay (DDA)
(§1) A sterile paper disc was impregnated with a sample of the test compound in a suitable solvent and 30 minutes allowed for the solvents to evaporate (where possible). The disc was then placed on an agar plate onto which the test micro-organism had been inoculated. The plate was then incubated under the conditions described above, following which it was examined visually for signs of bacterial growth. […] The diameter of this zone of “inhibition” was measured using a ProtoCOL™ automated zone sizer (Synbiosis, Cambridge, UK).
(f) Supplemented Disc Diffusion Assays
For assays using Propionibacterium spp. strains the supplements used in the examples below were lipid (either Tween™ 80 or triolein, both at 1% v/v) and sodium chloride (100 mM).

[2] = test system: P. acnes NCTC 737; assay: Synergy disc diffusion assay (SDDA), also supplemented; conditions: for SL SDDA area increase / SL SDDA increase / SL SDDA with CSL / SL SDDA with CSPH: salt and lipid (1% (v/v) triolein); for SDDA area increase / SDDA increase: unsupplemented
[3] = test system: S. aureus ATCC 29213; assay: Disc diffusion assay (DDA), also supplemented; conditions: Example 9; single compound; salt and serum
Experimental: The staphylococci were cultured and maintained on Mueller-Hinton Medium (agar and broth) at pH 7.2; cultures were incubated aerobically at 37° C. for 19-20 hours.
(d) Disc Diffusion Assay (DDA)
as §1
(f) Supplemented Disc Diffusion Assays
(§2) For assays using S. aureus ATCC 29213 the supplements used were sodium chloride (100 mM), lipid (Tween™ 80 at 1% v/v) and horse serum (5% v/v).

[4] = test system: S. aureus ATCC 29213; assay: Synergy disc diffusion assay (SDDA), also supplemented; conditions: for SDDA area increase / SDDA increase: unsupplemented;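 on all read-outs here: disc diffusion on Mueller-Hinton agar at pH 7.2, aerobic incubation at 37 °C lasting 19-20 h, two compounds assessed jointly for combined antimicrobial effect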
Experimental: (e) Synergy Disc Diffusion Assay (SDDA)
This is a variation on the DDA method, in which two compounds are tested together for their combined antimicrobial activity.
Two test compounds A and B were placed on a single paper disc and the above described DDA procedure repeated.
(f) Supplemented Disc Diffusion Assays
as §2

[5] = quinone + CSL, salt and serum supplements
[6] = quinone + CSPH, salt and serum supplements

CC(C)(C)C1=CC(=O)C=CC1=O
DDA + salt & lipid [1]: 45.13 (±1.45) mm | SL SDDA area increase ([2]; quinone + CSL): 56.24% | SL SDDA increase ([2]; quinone + CSL): 11.28 mm | SL SDDA with CSL ([2]; quinone + CSL): 56.41 (±2.58) mm | SDDA area increase ([2]; quinone + CSL): 63.59% | SDDA increase ([2]; quinone + CSL): 11.39 mm | SL SDDA area increase ([2]; quinone + CSPH): 10.60% | SL SDDA increase ([2]; quinone + CSPH): 2.56 mm | SL SDDA with CSPH ([2]; quinone + CSPH): 52.10 (±2.56) mm | SDDA area increase ([2]; quinone + CSPH): 61.51% | SDDA increase ([2]; quinone + CSPH): 11.39 mm

O=C1C=CC(=O)C(Cl)=C1 [2-chloro-1,4-benzoquinone]
DDA [1]: 22.15 (±0.53) mm | DDA + salt & lipid [1]: 24.31 (±0.81) mm | SDDA with CSL [2]: 45.85 (±0.31) mm | SDDA with CSPH [2]: 47.28 (±1.39) mm | SL SDDA area increase ([2]; quinone + CSL): 31.58% | SL SDDA increase ([2]; quinone + CSL): 6.26 mm | SL SDDA with CSL ([2]; quinone + CSL): 48.82 (±0.47) mm | SDDA area increase ([2]; quinone + CSL): 26.16% | SDDA increase ([2]; quinone + CSL): 5.03 mm | SL SDDA area increase ([2]; quinone + CSPH): 3.75% | SL SDDA increase ([2]; quinone + CSPH): 0.92 mm | SL SDDA with CSPH ([2]; quinone + CSPH): 50.46 (±2.15) mm | SDDA area increase ([2]; quinone + CSPH): 26.42% | SDDA increase ([2]; quinone + CSPH): 5.23 mm

CCc1cc(O)ccc1O [2-ethyl-p-hydroquinone]
DDA + salt & serum [3]: 25.26 (±1.29) mm | DDA + salt & lipid [1]: 33.74 (±1.69) mm | SL SDDA area increase ([2]; quinone + CSL): 31.58% | SL SDDA increase ([2]; quinone + CSL): 6.26 mm | SL SDDA with CSL ([2]; quinone + CSL): 48.82 (±0.47) mm | SDDA area increase ([2]; quinone + CSL): 33.02% | SDDA increase ([2]; quinone + CSL): 6.26 mm | SL SDDA area increase ([2]; quinone + CSPH): 11.07% | SL SDDA increase ([2]; quinone + CSPH): 2.67 mm | SL SDDA with CSPH ([2]; quinone + CSPH): 52.21 (±0.18) mm | SDDA area increase ([2]; quinone + CSPH): 44.00% | SDDA increase ([2]; quinone + CSPH): 8.41 mm | SS SDDA area increase [4, 5]: 41.05% | SS SDDA increase [4, 5]: 4.74 mm | SS SDDA with CSL [4, 5]: 30.00 (±2.47) mm | SDDA area increase ([4]; quinone + CSL): 151.18% | SDDA increase ([4]; quinone + CSL): 14.23 mm | SS SDDA area increase [4, 6]: 68.40% | SS SDDA increase [4, 6]: 7.52 mm | SS SDDA with CSPH [4, 6]: 32.78 (±0.31) mm | SDDA area increase ([4]; quinone + CSPH): 157.87% | SDDA increase ([4]; quinone + CSPH): 14.74 mm

CC1=CC(=O)C=CC1=O [2-methyl-p-benzoquinone]
DDA [1]: 33.74 (±1.52) mm | DDA + salt & lipid [1]: 35.18 (±1.24) mm | SDDA with CSL [2]: 49.64 (±0.99) mm | SDDA with CSPH [2]: 49.54 (±0.81) mm | SL SDDA area increase ([2]; quinone + CSL): 37.19% | SL SDDA increase ([2]; quinone + CSL): 7.29 mm | SL SDDA with CSL ([2]; quinone + CSL): 49.85 (±3.20) mm | SDDA area increase ([2]; quinone + CSL): 47.88% | SDDA increase ([2]; quinone + CSL): 8.82 mm | SL SDDA area increase ([2]; quinone + CSPH): 18.59% | SL SDDA increase ([2]; quinone + CSPH): 4.41 mm | SL SDDA with CSPH ([2]; quinone + CSPH): 53.95 (±1.16) mm | SDDA area increase ([2]; quinone + CSPH): 38.80% | SDDA increase ([2]; quinone + CSPH): 7.49 mm
